From patent publication US20210221848A1, “POLYMYXIN DERIVATIVES AND THEIR USE IN COMBINATION THERAPY TOGETHER WITH DIFFERENT ANTIBIOTICS” (priority 2014, published 2021)

Key:
[1] = test system: HK-2 cell line; assay: In vitro renal cell toxicity assay (resazurin reduction)
Description: MICs were determined as described herein. HK-2 cell IC50 values were determined as described herein. Values are reported relative to Polymyxin B.

[2] = test system: A. baumannii; assay: MIC in the presence of […] of rifampicin; type: cell-based, Acinetobacter baumannii; settings: for MIC in combination with Rifampicin, A. baumannii ATCC BAA-747: A. baumannii ATCC BAA-747, Table 5D; for MIC in combination with Rifampicin, A. baumannii NCTC 13424: A. baumannii NCTC 13424, Table 5D
Description: (§1) The inoculum was prepared by making a direct suspension of isolated colonies (selected from an 18-24 hour Mueller-Hinton agar plate) adjusted to the 0.5 McFarland standard. […] The assays were performed in duplicate. […] In cases where the duplicate values varied by less than 2-fold, the lower of the two values is reported. If a variation of greater than 2-fold was observed, the assay was considered non-valid. Several of the compounds were subjected to multiple tests, and where this is the case, the MIC reflects the modal value obtained.

[3] = test system: K. pneumoniae strains with elevated MICs to Polymyxin B; assay: MIC against strains with elevated MICs to Polymyxin B; type: cell-based, Klebsiella pneumoniae; settings: Table 6D; for MIC K. pneumoniae 062: strain 062, elevated MIC to Polymyxin B; for MIC K. pneumoniae 063: strain 063, elevated MIC to Polymyxin B; for MIC K. pneumoniae 064: strain 064, elevated MIC to Polymyxin B; for MIC K. pneumoniae 655: strain 655, elevated MIC to Polymyxin B
In short: (§2)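 Reported MIC is the lower of duplicates agreeing within 2-fold, or the mode where compounds were tested repeatedly. Assays with greater than 2-fold duplicate variation were rejected. Colonies grown 18-24 hours on Mueller-Hinton agar were suspended to 0.5 McFarland as inoculum.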

[4] = test system: E. coli; assay: MIC in the presence of a fixed concentration (2 μg/mL) of Rifampicin; type: cell-based, Escherichia coli; settings: Rifampicin 2 μg/mL, Table 5D
[5] = test system: A. baumanii strains with elevated MICs to Polymyxin B; assay: MIC against strains with elevated MICs to Polymyxin B; type: cell-based, Acinetobacter baumannii; settings: Table 6D; for MIC A. baumannii 053: strain 053, elevated MIC to Polymyxin B; for MIC A. baumannii 056: strain 056, elevated MIC to Polymyxin B; for MIC A. baumannii 068: strain 068, elevated MIC to Polymyxin B; for MIC A. baumannii 070: strain 070, elevated MIC to Polymyxin B
In short: as §2

[6] = test system: P. aeruginosa strains with elevated MICs to Polymyxin B; assay: as above; type: cell-based, Pseudomonas aeruginosa; settings: Table 6D; for MIC P. aeruginosa 066: strain 066, elevated MIC to Polymyxin B; for MIC P. aeruginosa 067: strain 067, elevated MIC to Polymyxin B
In short: as §2

[7] = test system: A. baumannii; settings: absence of a second agent, Table 6B
[8] = test system: P. aeruginosa; settings: absence of a second agent, Table 6B
[9] = test system: K. pneumoniae; assay: MIC in the presence of a fixed concentration (2 μg/mL) of Rifampicin; type: cell-based, Klebsiella pneumoniae; settings: Rifampicin 2 μg/mL, Table 5D
Description: as §1

[10] = test system: E. coli strains with elevated MICs to Polymyxin B; assay: MIC against strains with elevated MICs to Polymyxin B; type: cell-based, Escherichia coli; settings: Table 6D; for MIC E. coli 058: strain 058, elevated MIC to Polymyxin B; for MIC E. coli 059: strain 059, elevated MIC to Polymyxin B; for MIC E. coli 060: strain 060, elevated MIC to Polymyxin B; for MIC E. coli 061: strain 061, elevated MIC to Polymyxin B
In short: as §2

[11] = test system: K. pneumoniae; settings: absence of a second agent, Table 6B
[12] = test system: E. coli; settings: absence of a second agent, Table 6B

Molecule	MIC in combination with Rifampicin, A. baumannii ATCC BAA-747 [2]	MIC in combination with Rifampicin, A. baumannii NCTC 13424 [2]	MIC K. pneumoniae 062 [3]	MIC K. pneumoniae 063 [3]	MIC K. pneumoniae 064 [3]	MIC K. pneumoniae 655 [3]	MIC in combination with Rifampicin, E. coli ATCC 25922 [4]	MIC A. baumannii 053 [5]	MIC A. baumannii 056 [5]	MIC A. baumannii 068 [5]	MIC, A. baumannii ATCC BAA-747 [7]	MIC, A. baumannii NCTC 13424 [7]	MIC, P. aeruginosa ATCC 27853 [8]	MIC, P. aeruginosa CCUG 59347 [8]	MIC in combination with Rifampicin, K. pneumoniae ATCC 4352 [9]	MIC in combination with Rifampicin, K. pneumoniae ATCC BAA-2146 [9]	MIC, K. pneumoniae ATCC 4352 [11]	MIC, K. pneumoniae ATCC BAA-2146 [11]	MIC, E. coli ATCC 25922 [12]	MIC, E. coli NCTC 13441 [12]	also measured
CC(C)CC1CNCC1C(=O)N[C@H](C(=O)N[C@@H](CCN)C(=O)N[C@H]1CCNC(=O)[C@H]([C@@H](C)O)NC(=O)[C@H](CCN)NC(=O)[C@H](CCN)NC(=O)[C@H](CC(C)C)NC(=O)[C@@H](Cc2ccccc2)NC(=O)[C@H](CCN)NC1=O)[C@H](C)O (single isomer, unassigned) [Example D39, trans-4-(2-methylpropyl) pyrrolidine-3-carbonyl polymyxin B nonapeptide]																					HK-2 IC50 rel to PMB [1]: 5.4
2-(2-aminoethyl)- undecanoyl polymyxin B nonapeptide [Example D27]	1 micrograms/mL	1 micrograms/mL	16 micrograms/mL	64 micrograms/mL	16 micrograms/mL	64 micrograms/mL	0.125 micrograms/mL	64 micrograms/mL	32 micrograms/mL	2 micrograms/mL	0.25 micrograms/mL	1 micrograms/mL	0.5 micrograms/mL	0.5 micrograms/mL	0.5 micrograms/mL	4 micrograms/mL	0.25 micrograms/mL	0.5 micrograms/mL	0.125 micrograms/mL	0.06 micrograms/mL	MIC A. baumannii 070 [5]: 4 micrograms/mL; MIC P. aeruginosa 066 [6]: 16 micrograms/mL; MIC P. aeruginosa 067 [6]: >64 micrograms/mL; MIC E. coli 058 [10]: 2 micrograms/mL; MIC E. coli 059 [10]: 2 micrograms/mL; MIC E. coli 060 [10]: 4 micrograms/mL; MIC E. coli 061 [10]: 16 micrograms/mL
2-(2-aminoethyl)- undecanoyl polymyxin B nonapeptide [Example D26]	2 micrograms/mL	1 micrograms/mL	2 micrograms/mL	4 micrograms/mL	0.5 micrograms/mL	4 micrograms/mL	0.25 micrograms/mL	8 micrograms/mL	4 micrograms/mL	2 micrograms/mL	0.5 micrograms/mL	2 micrograms/mL	0.5 micrograms/mL	0.5 micrograms/mL	0.5 micrograms/mL	4 micrograms/mL	1 micrograms/mL	2 micrograms/mL	0.5 micrograms/mL	2 micrograms/mL	MIC in combination with Rifampicin, E. coli NCTC 13441 [4]: 1 micrograms/mL; MIC A. baumannii 070 [5]: 2 micrograms/mL; MIC P. aeruginosa 066 [6]: 1 micrograms/mL; MIC P. aeruginosa 067 [6]: 8 micrograms/mL; MIC E. coli 059 [10]: 0.5 micrograms/mL; MIC E. coli 060 [10]: 2 micrograms/mL; MIC E. coli 061 [10]: 4 micrograms/mL
(S)-1-octyl-piperazine- 2-carbonyl polymyxin B nonapeptide [Example D28]	1 micrograms/mL	1 micrograms/mL	8 micrograms/mL	16 micrograms/mL	2 micrograms/mL	16 micrograms/mL	1 micrograms/mL	32 micrograms/mL	16 micrograms/mL	4 micrograms/mL	0.25 micrograms/mL	1 micrograms/mL	0.5 micrograms/mL	1 micrograms/mL	0.5 micrograms/mL	2 micrograms/mL	0.25 micrograms/mL	0.5 micrograms/mL	0.125 micrograms/mL	0.125 micrograms/mL	MIC in combination with Rifampicin, E. coli NCTC 13441 [4]: 0.5 micrograms/mL; MIC A. baumannii 070 [5]: 4 micrograms/mL; MIC P. aeruginosa 065 ([6]; strain 065, elevated MIC to Polymyxin B): 0.5 micrograms/mL; MIC P. aeruginosa 066 [6]: 4 micrograms/mL; MIC P. aeruginosa 067 [6]: 32 micrograms/mL; MIC E. coli 058 [10]: 0.5 micrograms/mL; MIC E. coli 059 [10]: 0.5 micrograms/mL; MIC E. coli 060 [10]: 2 micrograms/mL; MIC E. coli 061 [10]: 4 micrograms/mL
(trans-5-cyclohexyl- piperidine)-3-carbonyl polymyxin B nonapeptide [Example D12]	0.5 micrograms/mL	0.03 micrograms/mL					0.06 micrograms/mL				>8 micrograms/mL	>8 micrograms/mL	1 micrograms/mL	4 micrograms/mL	0.125 micrograms/mL	0.25 micrograms/mL	>8 micrograms/mL	>8 micrograms/mL	>8 micrograms/mL	>8 micrograms/mL	MIC in combination with Rifampicin, E. coli NCTC 13441 [4]: 0.25 micrograms/mL
